Test results: ChEMBL document CHEMBL1140532, “Omega-alkoxy analogues of SAHA (vorinostat) as inhibitors of HDAC: a study of chain-length and stereochemical dependence” (Bioorg Med Chem Lett, 2007)

Assays:
[1] = target: Histone deacetylase 2 (Homo sapiens, UniProt Q92769); experiment: Inhibition of HDAC2 in HeLa cell lysates
[2] = test system: NCI-H460; experiment: Growth inhibition of human H460 cells by SRB assay; type: functional, cell-based
[3] = test system: NB-4; experiment: Growth inhibition of human NB4 cells by SRB assay; type: functional, cell-based
[4] = test system: HCT-116; experiment: Growth inhibition of human HCT116 cells by SRB assay; type: functional, cell-based

Histone deacetylase 2, sequence (Q92769 whole entry): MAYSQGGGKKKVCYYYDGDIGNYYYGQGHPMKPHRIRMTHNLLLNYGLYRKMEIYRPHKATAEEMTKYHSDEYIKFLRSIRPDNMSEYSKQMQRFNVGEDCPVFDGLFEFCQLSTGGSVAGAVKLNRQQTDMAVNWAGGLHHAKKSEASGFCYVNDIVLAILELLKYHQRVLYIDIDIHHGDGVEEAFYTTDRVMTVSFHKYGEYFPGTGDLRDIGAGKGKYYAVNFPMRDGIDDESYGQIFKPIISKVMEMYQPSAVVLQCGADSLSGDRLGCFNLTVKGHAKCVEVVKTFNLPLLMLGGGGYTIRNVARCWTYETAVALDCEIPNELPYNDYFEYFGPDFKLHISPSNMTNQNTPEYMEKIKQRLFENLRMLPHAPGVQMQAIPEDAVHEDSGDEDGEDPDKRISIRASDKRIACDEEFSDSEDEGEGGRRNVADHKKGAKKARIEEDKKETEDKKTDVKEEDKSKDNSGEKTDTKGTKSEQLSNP

Row | SMILES | IC50 [1] [nM] | IC50 [2] [nM] | IC50 [4] [nM] | IC50 [3] [nM]
1 | COc1ccc(CO[C@H](CCCCCC(=O)NO)C(=O)Nc2ccccc2)cc1 | ≥ 50 | 500 | 390 | 70
2 | COc1cccc(COC(CCCCCC(=O)NO)C(=O)N(Cc2cccc(OC)c2)c2ccccc2)c1 (stereo not given) | 500 | 7400 | 7500 | 4000
3 | COc1cc(COC(CCCCCC(=O)NO)C(=O)Nc2ccccc2)cc(OC)c1 (stereo not given) | ≥ 50 | 450 | 300 | 50
4 | COc1ccc(COC(CCCCCC(=O)NO)C(=O)Nc2ccc(OC)cc2)cc1 (stereo not given) | 500 | 300 | 340 | 150
5 | O=C(CCCCCC(O)C(=O)Nc1ccccc1)NO (stereo not given) | 500 | 460 | 1090 | 340
6 | COc1ccc(COC(CCCCCC(=O)NO)C(=O)Nc2ccccc2)cc1 (stereo not given) | ≥ 50 | 520 | 220 | 120
7 | COc1ccc(CO[C@@H](CCCCCC(=O)NO)C(=O)Nc2ccccc2)cc1 | ≥ 50 | 450 | 250 | 110
8 | O=C(CCCCCC(Oc1cccc(Oc2ccccc2)c1)C(=O)Nc1ccccc1)NO (stereo not given) |  | 680 | 670 | 230
9 | C=CCOC(CCCCCC(=O)NO)C(=O)Nc1ccccc1 (stereo not given) | 500 | 1790 | 990 | 450
10 | C=CCOC(CCCCCCC(=O)NO)C(=O)Nc1ccccc1 (stereo not given) | ≥ 50 | 1800 | 950 | 620

Second part, led by results:

Row | IC50 [1] [nM] | IC50 [2] [nM] | IC50 [4] [nM] | SMILES | IC50 [3] [nM]
11 | ≥ 50 | 480 | 430 | O=C(CCCCCC(OCc1ccc(C(F)(F)F)cc1)C(=O)Nc1ccccc1)NO (stereo not given) | 170
12 | ≥ 50 | 590 | 270 | Cc1ccc(COC(CCCCCC(=O)NO)C(=O)Nc2ccccc2)cc1 (stereo not given) | 120
13 | ≥ 50 | 590 | 630 | COc1cccc(COC(CCCCCC(=O)NO)C(=O)Nc2ccccc2)c1 (stereo not given) | 160
14 | 500 | 1000 | 500 | COc1ccc(NC(=O)C(CCCCCC(=O)NO)OCc2ccccc2)cc1 (stereo not given) | 250
15 | 500 | 1200 | 880 | COC(CCCCCC(=O)NO)C(=O)Nc1ccccc1 (stereo not given) | 520
16 | 500 | 5700 | 5000 | COC(CCCCC(=O)NO)C(=O)Nc1ccccc1 (stereo not given) | 3500
17 | 500 | 10400 | 8500 | CCCOC(CCCCC(=O)NO)C(=O)Nc1ccccc1 (stereo not given) | 4100
18 | ≥ 50 | 490 | 280 | O=C(CCCCCC(OCc1ccc(Br)cc1)C(=O)Nc1ccccc1)NO (stereo not given) | 60
19 | 500 | 5500 | 2400 | O=C(CCCCC(OCc1ccccc1)C(=O)Nc1ccccc1)NO (stereo not given) | > 5000
